Source: the NIST ThermoML archive (doi:10.1016/j.jct.2016.10.009)

Assay: xn = mol fraction of the nth substance listed
Settings: Liquid, Vibrating tube method

CC(C)OC(C)C [diisopropyl ether] + CCC(C)O
mass density [kg/m3]
Settings | x2 = 0 | x2 = 0.2036 | x2 = 0.3227 | x2 = 0.4464 | x2 = 0.4973 | x2 = 0.6595 | x2 = 0.8482
333.15 K, 45000 kPa | – | – | – | 761.8 | 765.4 | 777.4 | 793.2
333.15 K, 50000 kPa | 739.1 | 750.4 | 757.8 | 765.7 | 769.2 | 781.1 | 796.6
333.15 K, 55000 kPa | 743.1 | 754.3 | 761.6 | 769.4 | 772.9 | 784.5 | 799.8
333.15 K, 60000 kPa | 747.1 | 758 | 765.2 | 772.9 | 776.4 | 787.9 | 803
333.15 K, 65000 kPa | 750.9 | 761.7 | 768.8 | 776.4 | 779.8 | 791.2 | 806
333.15 K, 70000 kPa | 754.4 | 765.1 | 772.1 | 779.7 | 783.1 | 794.3 | 808.9
333.15 K, 80000 kPa | 761.3 | 771.8 | 778.6 | 785.9 | 789.2 | 800.2 | 814.6
333.15 K, 90000 kPa | 767.7 | 778 | 784.7 | 791.9 | 795.1 | 805.9 | 820
333.15 K, 100000 kPa | 773.7 | 783.7 | 790.3 | 797.4 | 800.5 | 811.1 | 824.9
333.15 K, 110000 kPa | 779.4 | 789.3 | 795.8 | 802.7 | 805.9 | 816.1 | 829.8
333.15 K, 120000 kPa | 784.7 | 794.5 | 800.9 | 807.7 | 810.8 | 820.9 | 834.3
333.15 K, 130000 kPa | 789.9 | 799.5 | 805.9 | 812.5 | 815.6 | 825.6 | 838.8
333.15 K, 140000 kPa | 794.8 | 804.2 | 810.4 | 817 | 820 | 830 | 842.9
353.19 K, 100 kPa | – | 672.3 | 682 | 692.5 | – | 712.8 | 732.9
353.19 K, 1000 kPa | 659.5 | 674.1 | 683.6 | 694.1 | 698.7 | 714.2 | 734.2
353.19 K, 5000 kPa | 667.6 | 681.5 | 690.7 | 700.7 | 705.1 | 720 | 739.3
353.19 K, 10000 kPa | 676.5 | 689.7 | 698.5 | 708 | 712.3 | 726.7 | 745.2
353.19 K, 15000 kPa | 684.4 | 697.1 | 705.5 | 714.7 | 718.9 | 732.8 | 750.7
353.19 K, 20000 kPa | 691.5 | 703.8 | 711.9 | 720.9 | 724.9 | 738.3 | 755.8
353.19 K, 25000 kPa | 698 | 709.9 | 717.9 | 726.6 | 730.4 | 743.5 | 760.6
353.19 K, 30000 kPa | 704 | 715.7 | 723.4 | – | – | – | –
